Entries after “also recorded” stand apart in the source; their conditions may differ. Read-outs that look alike come from different tables or passages of the source.
Tests used:
KM12 cells = experiment: Cell viability assay (CellTiter-Glo) in KM12 cells; type: cell-based; details: for IC50: Homo sapiens, 72 h, KM12 cell viability, CellTiter-Glo, 3 days, read-out: IC50
TPM3-TRKA fusion protein [1] = molecular target: T1, TPM3-TRKA fusion protein (Homo sapiens, UniProt P04629+P06753+Q96SW2); experiment: Immunoblotting of TPM3-TRKA in KM12 subcutaneous xenograft tumors; type: in vivo, Athymic nude mice; design: The resulted chimeric proteins always retain the kinase domain of TRK proteins; TPM3 (N-terminal fusion partner, natural gene fusion); from tissue; host or cells: KM12 subcutaneous xenograft tumors in athymic nude mice
Method: In addition to cultured cells, athymic nude mice bearing KM12 subcutaneous xenograft tumors at the right flank were intraperitoneally treated with 10, 20, or 50 mg/kg CPD-053, CPD-027, or CPD-060. Four hours after drug administration, animals were sacrificed for immunoblotting of TPM3-TPKA in homogenized xenograft tumor masses. The label “a” or “b” represents two different samples of the same xenograft tumor.
Athymic nude mice bearing KM12 subcutaneous xenograft tumors at the right flank were intraperitoneally treated with 10, 20, or 50 mg/kg CPD-053, CPD-027, or CPD-060, as indicated in FIG. 3. Four hours after drug administration, animals were sacrificed for immunoblotting of TPM3-TPKA in homogenized xenograft tumor chunks. The label “a” or “b” represents two different chunks of the same xenograft tumor.
Athymic nude mice bearing KM12 subcutaneous xenograft tumors at the right flank were intraperitoneally or orally treated with bivalent compounds at indicated dose. Eight hours after drug administration, animals were sacrificed for immunoblotting of TPM3-TPKA in homogenized xenograft tumor samples.
(§1) Cultured cells were washed with cold PBS once and lysed in cold RIPA buffer supplemented with protease inhibitors and phosphatase inhibitors (Beyotime Biotechnology). The solutions were then incubated at 4° C. for 30 minutes with gentle agitation to fully lyse cells. For tumor tissues, tumors were cut into small pieces, milled with cold RIPA buffer using a mechanical homogenizer and lysed for 1 hour at 4° C. Cell lysates were centrifuged at 13,000 rpm for 10 minutes at 4° C. and pellets were discarded. Total protein concentrations in the lysates were determined by BCA assays (Beyotime Biotechnology). Cell lysates were mixed with Laemmli loading buffer to 1× and heated at 99° C. for 5 min. Proteins were resolved on SDS-PAGE and visualized by chemiluminescence. Images were taken by a ChemiDoc MP Imaging system (Bio-Rad). Protein bands were quantitated using the software provided by Bio-Rad.
(§2) All animal experiments were performed under protocols approved by the Institutional Animal Care and Use Committee (IACUC) of Cullgen. Athymic nude mice (male, 5-weeks old) received 5 million KM12 cells subcutaneously inoculated at the right flank site. Ten days following inoculation, tumors were approximately 500 mm3 in size. Tumor-bearing mice were treated intraperitoneally with vehicle or bivalent compounds at indicated doses. Tumor sizes and body weight of mice were measured every 2 days. In addition, immunoblotting assays were employed to assess the levels of TRKA fusion proteins in xenograft tumors around 500 mm^3 in size following drug administration. At indicated hours after drug administration, selected mice were sacrificed, tumors were resected. Small chunks of tumors were homogenized for immunoblotting of TPM3-TPKA and other proteins as indicated.

TPM3-TRKA fusion protein [2] = molecular target: T1, TPM3-TRKA fusion protein; experiment: Immunoblotting of TPM3-TRKA fusion protein in KM12 cells; type: cell-based; design: The resulted chimeric proteins always retain the kinase domain of TRK proteins; TPM3 (N-terminal fusion partner, natural gene fusion); endogenous in cells; host or cells: KM12 colon cancer cells
Method: Specific exemplary bivalent compounds were characterized in KM12 cells. […] Cells were collected, lysed and subject to immunoblotting using an antibody specific to TRK proteins. GAPDH was included as the loading control. DMSO was used as the negative control.
KM12 cells were treated with DMSO or indicated compounds at 100 nM for 16 hours.
KM12 cells were treated with CPD-027, CPD-053, and CPD-060 at 100 nM for indicated incubation time. […]
KM12 or HEL cells were treated with a dose range of compound TR-123 or TR-123-negative. The latter lost binding to cereblon (CRBN) due to a chemical modification.
KM12 or HEL cells were treated with a single dose of compound TR-123 or combination with MG-132, Bortezomib, MLN4924 or Pomalidomide. […]
as §1

KRAS-mutant H358 cells = experiment: Cell viability assay (CellTiter-Glo) in H358 cells; type: cell-based; details: 1000 nM, 8-point 3-fold serial dilution, 3 days (FIG. 4B)
Method: The kinase activity of TRK is known to play important roles in tumors expressing TRK-fusion proteins, as TRK kinase inhibitors compromise cell proliferation, survival, and induce marked clinical responses (Amatu et al., 2016; Drilon et al., 2018; Drilon et al., 2017; Khotskaya et al., 2017). […] Three days after treatment, cell viability was determined using the CellTiter-Glo kit following manufacturer's instructions. Cell viability was normalized to the mean values of 3 replicates of untreated cells. Dose-dependent response was analyzed following the least-squares non-linear regression method using the GraphPad Prism 5.0 software. Each data point in the figure represents the mean values of three technical replicates±standard deviation. […] More specifically, all bivalent compounds that had IC50 values smaller than 1000 nM in KM12 cells induced degradation of TPM3-TRKA (FIG. 1 and Table 2-4). […]
Cells were seeded at a density of 5000 cells per well in 96-well assay plates and treated with test compounds following a 12-point 2-fold serial dilution or a 8-point 3-fold dilution. Three days later, cell viability was determined using the CellTiter-Glo assay kit (Promega) according to the manufacturer's instructions. The dose-response curves were determined and IC50 values were calculated using the GraphPad Prism software following a nonlinear regression (least squares fit) method.

[3] = system: monoiodoacetate-induced osteoarthritis; experiment: Monoiodoacetate-induced osteoarthritis pain model in guinea pigs; type: in vivo; details: 20 mg/kg i.p., single dose, 6 hours following treatment (FIG. 16B)
[4] = Body weight of xenograft-bearing mice (toxicity); type: in vivo, Athymic nude mice; details: 10-20 mg/kg qd or bid via oral gavage (FIG. 15B)
Method: (§3) Athymic nude mice bearing KM12 subcutaneous xenograft tumors at the right flank were intraperitoneally treated with vehicle or 25 mg/kg CPD-060 once per day (qd), twice per day (bid), or once every two days (q2d). Tumor volumes were assessed every two days and expressed as length×width×width/2. Body weights of experimental mice were also measured to assess the toxicity of compounds.
(§4) Athymic nude mice bearing KM12 subcutaneous xenograft tumors at the right flank were treated with vehicle, 10-20 mg/kg TR-181 or TR-198 once per day (qd), or twice per day (bid) via oral gavage. Tumor volumes were assessed every two days and expressed as length×width×width/2. Body weights of experimental mice were also measured to assess the toxicity of compounds.
as §2

[5] = system: monoiodoacetate-induced osteoarthritis; experiment: Monoiodoacetate-induced osteoarthritis pain model in rats; type: in vivo, Sprague Dawley rats; details: 20 mg/kg i.p., single dose, 6 hours following treatment (FIG. 16A)
[6] = system: KM12 subcutaneous xenograft tumors; experiment: KM12 subcutaneous xenograft tumor growth study; type: in vivo, Athymic nude mice; details: 10-20 mg/kg qd or bid via oral gavage (FIG. 15A)
Method: as §3, §4, §2

T1 sequence (P06753+P04629 fused): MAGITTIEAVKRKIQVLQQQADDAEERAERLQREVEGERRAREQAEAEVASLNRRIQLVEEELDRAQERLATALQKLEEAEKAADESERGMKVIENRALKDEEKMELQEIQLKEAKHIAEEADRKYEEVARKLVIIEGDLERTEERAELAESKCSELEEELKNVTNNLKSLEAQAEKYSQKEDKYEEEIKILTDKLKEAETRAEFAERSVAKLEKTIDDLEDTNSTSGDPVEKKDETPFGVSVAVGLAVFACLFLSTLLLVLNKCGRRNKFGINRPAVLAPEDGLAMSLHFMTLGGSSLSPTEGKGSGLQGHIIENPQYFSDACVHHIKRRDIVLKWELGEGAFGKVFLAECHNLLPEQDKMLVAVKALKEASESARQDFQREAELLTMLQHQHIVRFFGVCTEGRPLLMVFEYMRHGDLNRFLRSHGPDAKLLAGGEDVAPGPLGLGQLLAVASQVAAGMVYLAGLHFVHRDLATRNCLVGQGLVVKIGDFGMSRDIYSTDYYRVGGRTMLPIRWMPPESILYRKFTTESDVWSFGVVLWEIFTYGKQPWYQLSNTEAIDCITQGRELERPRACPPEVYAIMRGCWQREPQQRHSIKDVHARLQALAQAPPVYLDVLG
T1 sequence (Q96SW2 whole entry, the tested form may be a part): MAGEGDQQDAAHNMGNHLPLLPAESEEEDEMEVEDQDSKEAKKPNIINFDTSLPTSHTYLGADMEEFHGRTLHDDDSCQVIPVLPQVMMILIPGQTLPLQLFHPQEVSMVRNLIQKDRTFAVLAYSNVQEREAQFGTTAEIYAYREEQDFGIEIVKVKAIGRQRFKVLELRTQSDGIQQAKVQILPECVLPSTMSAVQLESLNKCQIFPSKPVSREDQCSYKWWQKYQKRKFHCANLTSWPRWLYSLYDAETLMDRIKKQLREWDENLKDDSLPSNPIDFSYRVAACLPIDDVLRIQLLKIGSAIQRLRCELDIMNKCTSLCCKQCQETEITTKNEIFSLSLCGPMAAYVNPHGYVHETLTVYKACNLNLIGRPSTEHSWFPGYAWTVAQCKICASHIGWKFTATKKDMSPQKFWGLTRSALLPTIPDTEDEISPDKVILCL
T1 sequence (Q16531 whole entry partner, the tested form may be a part): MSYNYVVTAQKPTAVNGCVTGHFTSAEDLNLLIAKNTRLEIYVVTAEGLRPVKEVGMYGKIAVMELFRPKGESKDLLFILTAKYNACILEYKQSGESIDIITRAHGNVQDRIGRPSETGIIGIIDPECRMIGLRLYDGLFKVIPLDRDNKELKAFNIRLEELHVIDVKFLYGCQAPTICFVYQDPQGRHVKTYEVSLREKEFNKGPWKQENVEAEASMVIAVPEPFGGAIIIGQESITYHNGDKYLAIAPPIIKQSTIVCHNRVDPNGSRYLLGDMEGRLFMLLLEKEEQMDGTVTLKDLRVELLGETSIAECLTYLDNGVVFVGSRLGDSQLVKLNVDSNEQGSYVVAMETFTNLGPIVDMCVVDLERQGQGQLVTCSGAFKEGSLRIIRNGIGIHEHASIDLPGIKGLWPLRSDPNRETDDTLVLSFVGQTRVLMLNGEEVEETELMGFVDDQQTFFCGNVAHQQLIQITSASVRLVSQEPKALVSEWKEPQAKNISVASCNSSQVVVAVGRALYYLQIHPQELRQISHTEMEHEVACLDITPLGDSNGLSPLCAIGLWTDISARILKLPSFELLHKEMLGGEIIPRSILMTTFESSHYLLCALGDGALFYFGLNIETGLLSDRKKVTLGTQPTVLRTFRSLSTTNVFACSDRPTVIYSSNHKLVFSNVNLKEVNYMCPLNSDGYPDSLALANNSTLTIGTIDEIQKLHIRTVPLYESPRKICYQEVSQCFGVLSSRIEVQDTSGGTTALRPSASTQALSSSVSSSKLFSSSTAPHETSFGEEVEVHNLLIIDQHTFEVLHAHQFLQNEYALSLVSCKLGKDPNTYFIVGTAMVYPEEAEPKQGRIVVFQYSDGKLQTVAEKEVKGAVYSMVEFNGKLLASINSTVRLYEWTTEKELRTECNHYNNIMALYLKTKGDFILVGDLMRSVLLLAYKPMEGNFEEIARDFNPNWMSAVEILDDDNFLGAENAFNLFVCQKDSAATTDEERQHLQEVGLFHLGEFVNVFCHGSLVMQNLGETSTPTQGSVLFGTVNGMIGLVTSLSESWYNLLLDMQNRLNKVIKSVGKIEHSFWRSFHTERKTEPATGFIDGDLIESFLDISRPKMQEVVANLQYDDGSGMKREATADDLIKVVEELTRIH

| SMILES | viability of KM12 cells (KM12 cells; 500 nM, 12-point 2-fold serial dilution, 3 days (FIG. 4A)) | viability of KM12 cells (KM12 cells; 1000 nM, 8-point 3-fold serial dilution, 3 days (FIG. 4B)) | IC50 (KM12 cells; Table 2) | TPM3-TRKA protein levels in KM12 subcutaneous xenograft tumors (TPM3-TRKA fusion protein [1]; 10, 20, or 50 mg/kg intraperitoneally, single dose, four hours after administration (FIG. 3)) | time after adding compound at which significant degradation of TPM3-TRKA was detected (TPM3-TRKA fusion protein [2]; 100 nM (FIG. 2)) | TPM3-TRKA protein levels (TPM3-TRKA fusion protein [2]; 100 nM, 16 hours (FIG. 1A-1C)) | TPM3-TRKA protein levels, time course (TPM3-TRKA fusion protein [2]; 100 nM, indicated incubation time (FIG. 2)) | viability of H358 cells (KRAS-mutant H358 cells) | analgesic activity (percentage of weight born on the injured limb) [3] | IC50 (KM12 cells; Table 3) | body weight [4] | TPM3-TRKA degradation in KM12 subcutaneous tumors (TPM3-TRKA fusion protein [1]; intraperitoneal or oral administration, eight hours after administration (FIG. 10)) | analgesic activity (percentage of weight born on the injured limb) [5] | growth of KM12 subcutaneous xenograft tumors [6] |
| --- | --- | --- | --- | --- | --- | --- | --- | --- | --- | --- | --- | --- | --- | --- |
| O=C1CCC(N2C(=O)c3cccc(NCCCC(=O)N4CCN(c5ccc(C(=O)Nc6n[nH]c7ccc(Cc8cc(F)cc(F)c8)cc67)c(NC6CCOCC6)c5)CC4)c3C2=O)C(=O)N1 (centres unmarked) [CPD-053, N-(5-(3,5-Difluorobenzyl)-1H-indazol-3-yl)-4-(4-(4-((2-(2,6-dioxopiperidin-3-yl)-1,3-dioxoisoindolin-4-yl)amino)butanoyl)piperazin-1-yl)-2-((tetrahydro-2H-pyran-4-yl)amino)benzamide] | inhibited the viability; also recorded: dose-dependently suppressed viability | significantly inhibited the viability | 1.5 nM | significantly reducing TPM3-TRKA protein levels | 15 min | particularly effective in reducing TPM3-TRKA protein levels | rapidly reduced TPM3-TRKA protein levels | did not affect cell viability |  |  |  |  |  |  |
| O=C1CCC(N2C(=O)c3ccc(NCCN4CCN(c5cccc(-c6cnc7ccc(N8CCC[C@@H]8c8cccc(F)c8)nn67)n5)CC4)cc3C2=O)C(=O)N1 (stereo partly drawn) [TR-181, 2-(2,6-dioxopiperidin-3-yl)-5-((2-(4-(6-(6-((R)-2-(3-fluorophenyl)pyrrolidin-1-yl)imidazo[1,2-b]pyridazin-3-yl)pyridin-2-yl)piperazin-1-yl)ethyl)amino)isoindoline-1,3-dione] |  |  |  |  |  |  |  |  | significant analgesic activity | 3.4 nM | without inducing substantial weight losses | exhibited the activities to induce TPM3-TRKA degradation | significant analgesic activity | significant in vivo anti-tumor activity; also recorded: significantly repressed the growth |

Source: patent US12065442B2, “Tropomyosin receptor kinase (TRK) degradation compounds and methods of use” (Cullgen (Shanghai), Inc., priority 2018, dated 2024)
